Converted amounts (≈) assume the structure as drawn.
Tests used:
Experiment in all cases: MIC, broth microdilution (NCCLS)
Type in all cases: cell-based
[1] = system: E. faecalis GC4555 (ATCC Control); conditions: Enterococcus faecalis, Mueller-Hinton II broth, 18-22 hours at 35° C.
Method in brief: (§1)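 MICs determined in cation-standard Mueller-Hinton II broth with serial drug dilutions, each strain inoculated to 10^5 CFU/ml. Incubation: 35 °C, ambient air, 18-22 h, following NCCLS broth microdilution guidance.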

[2] = system: S. aureus GC1131 (Clinical); conditions: Staphylococcus aureus, Mueller-Hinton II broth, 18-22 hours at 35° C.
Method in brief: as §1

[3] = system: S. pyogenes* GC4563 (Clinical); conditions: Streptococcus pyogenes, Mueller-Hinton II broth, 18-22 hours at 35° C.
Method in brief: as §1

[4] = system: E. faecalis GC2267 (tet(L) + (M) + (S)); conditions: Enterococcus faecalis
Method in brief: as §1

[5] = system: E. coli GC4559 (parent GC4560); conditions: Escherichia coli, Mueller-Hinton II broth, 18-22 hours at 35° C.
Method in brief: as §1

[6] = system: S. aureus GC4536 (Smith MP -In Vivo); conditions: Staphylococcus aureus, Mueller-Hinton II broth, 18-22 hours at 35° C.
Method in brief: as §1

[7] = system: S. aureus GC1079 (tet(K)); conditions: Staphylococcus aureus, Mueller-Hinton II broth, 18-22 hours at 35° C.
Method in brief: as §1

[8] = system: E. faecalis GC2242 (Van-resistant); conditions: Enterococcus faecalis, Mueller-Hinton II broth, 18-22 hours at 35° C.
Method in brief: as §1

[9] = system: E. coli GC2203 (ATCC Control); conditions: Escherichia coli, Mueller-Hinton II broth, 18-22 hours at 35° C.
Method in brief: as §1

[10] = system: H. influenzae<> GC6896 (ATCC Control); conditions: Haemophilus influenzae, Mueller-Hinton II broth, 18-22 hours at 35° C.
Method in brief: as §1

[11] = system: E. coli GC4560 (IMP mutant); conditions: Escherichia coli
Method in brief: as §1

[12] = system: S. aureus GC2216 (ATCC Control); conditions: Staphylococcus aureus, Mueller-Hinton II broth, 18-22 hours at 35° C.
Method in brief: as §1

[13] = system: S. aureus GC6467 (tet(M) + (K)); conditions: Staphylococcus aureus
Method in brief: as §1

[14] = system: S. pneumoniae* GC1894 (Clinical); conditions: Streptococcus pneumoniae, Mueller-Hinton II broth, 18-22 hours at 35° C.
Method in brief: as §1

[15] = system: S. aureus GC6466 (tet(M)); conditions: Staphylococcus aureus, Mueller-Hinton II broth, 18-22 hours at 35° C.
Method in brief: as §1

[16] = system: C. albicans GC3066 ATCC (Control); conditions: Candida albicans, Mueller-Hinton II broth, 18-22 hours at 35° C.
[17] = system: M. catarrhalis* GC6907 (Clinical); conditions: Moraxella catarrhalis, Mueller-Hinton II broth, 18-22 hours at 35° C.
Method in brief: as §1

[18] = system: S. pneumoniae* GC4465 (Clinical); conditions: Streptococcus pneumoniae, Mueller-Hinton II broth, 18-22 hours at 35° C.
Method in brief: as §1

E. coli GC1073 (tet(B)) = conditions: Escherichia coli
Method in brief: as §1

E. coli GC2270 (tet(M)) = conditions: Escherichia coli
Method in brief: as §1

| SMILES | MIC [1] [µg/mL] | MIC [2] [µg/mL] | MIC [3] [µg/mL] | MIC [4] [µg/mL] | MIC [5] [µg/mL] | MIC [6] [µg/mL] | MIC [7] [µg/mL] | MIC [8] [µg/mL] | MIC [9] [µg/mL] | MIC [10] [µg/mL] | MIC [11] [µg/mL] | MIC [12] [µg/mL] | MIC [13] [µg/mL] | MIC [14] [µg/mL] | MIC [15] [µg/mL] | MIC [16] [µg/mL] | MIC [17] [µg/mL] | MIC [18] [µg/mL] | MIC (E. coli GC1073 (tet(B))) [µg/mL] | MIC (E. coli GC2270 (tet(M))) [µg/mL] |
| --- | --- | --- | --- | --- | --- | --- | --- | --- | --- | --- | --- | --- | --- | --- | --- | --- | --- | --- | --- | --- |
| CCCCNCc1nc2cc(N(C)C)c3c(c2o1)C(=O)C1=C(O)[C@]2(O)C(=O)C(C(N)=O)=C(O)[C@@H](N(C)C)[C@@H]2C[C@@H]1C3 [Example 39, (6aR,7aS,8S,11aS)-2-[(butylamino)methyl]-5,8-bis(dimethylamino)-9,11a,12-trihydroxy-11,13-dioxo-6,6a,7,7a,8,11,11a,13-octahydrotetraceno[2,1-d][1,3]oxazole-10-carboxamide] | 32 (≈ 56.4 µM) | 32 (≈ 56.4 µM) | 8 (≈ 14.1 µM) | 64 (≈ 113 µM) | 32 (≈ 56.4 µM) | 32 (≈ 56.4 µM) | 64 (≈ 113 µM) | 32 (≈ 56.4 µM) | 32 (≈ 56.4 µM) | 64 (≈ 113 µM) | 8 (≈ 14.1 µM) | 32 (≈ 56.4 µM) | > 64 | 8 (≈ 14.1 µM) | 32 (≈ 56.4 µM) | > 64 | 8 (≈ 14.1 µM) | 8 (≈ 14.1 µM) | – | – |
| CN(C)c1cc2nc(-c3ccc(OCc4ccccc4)cc3)oc2c2c1C[C@H]1C[C@H]3[C@H](N(C)C)C(O)=C(C(N)=O)C(=O)[C@@]3(O)C(O)=C1C2=O [Example 11, (6aR,7aS,8S,11aS)-2-[4-(benzyloxy)phenyl]-5,8-bis(dimethylamino)-9,11a,12-trihydroxy-11,13-dioxo-6,6a,7,7a,8,11,11a,13-octahydrotetraceno[2,1-d](1,3]oxazole-10-carboxamide] | 64 (≈ 96.3 µM) | 32 (≈ 48.1 µM) | 32 (≈ 48.1 µM) | > 64 | > 64 | 64 (≈ 96.3 µM) | 64 (≈ 96.3 µM) | 64 (≈ 96.3 µM) | > 64 | > 64 | > 64 | 64 (≈ 96.3 µM) | – | 32 (≈ 48.1 µM) | 64 (≈ 96.3 µM) | > 64 | 32 (≈ 48.1 µM) | 32 (≈ 48.1 µM) | > 64 | > 64 |
| CCCNCc1nc2cc(N(C)C)c3c(c2o1)C(=O)C1=C(O)[C@]2(O)C(=O)C(C(N)=O)=C(O)[C@@H](N(C)C)[C@@H]2C[C@@H]1C3 [Example 38, (6aR,7aS,8S,11aS)-5,8-bis(dimethylamino)-9,11a,12-trihydroxy-11,13-dioxo-2-[(propylamino)methyl]-6,6a,7,7a,8,11,11a,13-octahydrotetraceno[2,1-d][1,3]oxazole-10-carboxamide] | 16 (≈ 28.9 µM) | 32 (≈ 57.8 µM) | 4 (≈ 7.23 µM) | 64 (≈ 116 µM) | 32 (≈ 57.8 µM) | 16 (≈ 28.9 µM) | 64 (≈ 116 µM) | 16 (≈ 28.9 µM) | 32 (≈ 57.8 µM) | 64 (≈ 116 µM) | 8 (≈ 14.5 µM) | 32 (≈ 57.8 µM) | > 64 | 4 (≈ 7.23 µM) | 32 (≈ 57.8 µM) | > 64 | 4 (≈ 7.23 µM) | 4 (≈ 7.23 µM) | – | – |
| CC(=O)OCc1ccc(-c2nc3cc(N(C)C)c4c(c3o2)C(=O)C2=C(O)[C@]3(O)C(=O)C(C(N)=O)=C(O)[C@@H](N(C)C)[C@@H]3C[C@@H]2C4)o1 [Example 21, {5-[(6aR,7aS,8S,11aS)-10-(aminocarbonyl)-5,8-bis(dimethylamino)-9,11a,12-trihydroxy-11,13-dioxo-6,6a,7,7a,8,11,11a,13-octahydrotetraceno[2,1-d][1,3]oxazol-2-yl]-2-furyl}methyl acetate] | > 64 | 64 | > 64 | 64 | > 64 | 64 | 32 | 32 | > 64 | > 64 | > 64 | 32 | – | > 64 | 32 | > 64 | > 64 | > 64 | > 64 | > 64 |
| CN(C)c1ccc(-c2nc3cc(N(C)C)c4c(c3o2)C(=O)C2=C(O)[C@]3(O)C(=O)C(C(N)=O)=C(O)[C@@H](N(C)C)[C@@H]3C[C@@H]2C4)cc1 [Example 8, (6aR,7aS,8S,11aS)-5,8-bis(dimethylamino)-2-[4-(dimethylamino)phenyl]-9,11a,12-trihydroxy-11,13-dioxo-6,6a,7,7a,8,11,11a,13-octahydrotetraceno[2,1-d][1,3]oxazole-10-carboxamide] | 32 (≈ 53.2 µM) | 8 (≈ 13.3 µM) | 16 (≈ 26.6 µM) | 16 (≈ 26.6 µM) | > 64 | 16 (≈ 26.6 µM) | 16 (≈ 26.6 µM) | 8 (≈ 13.3 µM) | > 64 | > 64 | 16 (≈ 26.6 µM) | 8 (≈ 13.3 µM) | – | 16 (≈ 26.6 µM) | 16 (≈ 26.6 µM) | > 64 | 64 (≈ 106 µM) | 32 (≈ 53.2 µM) | > 64 | > 64 |
| CN(C)c1cc2nc(-c3ccsc3)oc2c2c1C[C@H]1C[C@H]3[C@H](N(C)C)C(O)=C(C(N)=O)C(=O)[C@@]3(O)C(O)=C1C2=O [Example 17, (6aR,7aS,8S,11aS)-5,8-bis(dimethylamino)-9,11a,12-trihydroxy-11,13-dioxo-2-thien-3-yl-6,6a,7,7a,8,11,11a,13-octahydrotetraceno[2,1-d][1,3]oxazole-10-carboxamide] | 8 (≈ 14.2 µM) | 8 (≈ 14.2 µM) | 16 (≈ 28.3 µM) | 16 (≈ 28.3 µM) | > 64 | 8 (≈ 14.2 µM) | 8 (≈ 14.2 µM) | 8 (≈ 14.2 µM) | > 64 | > 64 | 4 (≈ 7.08 µM) | 8 (≈ 14.2 µM) | – | 32 (≈ 56.7 µM) | 8 (≈ 14.2 µM) | > 64 | 16 (≈ 28.3 µM) | 32 (≈ 56.7 µM) | > 64 | > 64 |
| CN(C)Cc1nc2cc(N(C)C)c3c(c2o1)C(=O)C1=C(O)[C@]2(O)C(=O)C(C(N)=O)=C(O)[C@@H](N(C)C)[C@@H]2C[C@@H]1C3 [Example 36, (6aR,7aS,8S,11aS)-5,8-bis(dimethylamino)-2-[(dimethylamino)methyl]-9,11a,12-trihydroxy-11,13-dioxo-6,6a,7,7a,8,11,11a,13-octahydrotetraceno[2,1-d][1,3]oxazole-10-carboxamide] | 4 (≈ 7.41 µM) | 4 (≈ 7.41 µM) | 1 (≈ 1.85 µM) | – | 4 (≈ 7.41 µM) | 4 (≈ 7.41 µM) | 4 (≈ 7.41 µM) | 4 (≈ 7.41 µM) | 2 (≈ 3.71 µM) | 4 (≈ 7.41 µM) | 1 (≈ 1.85 µM) | 2 (≈ 3.71 µM) | 16 (≈ 29.7 µM) | 1 (≈ 1.85 µM) | 4 (≈ 7.41 µM) | > 64 | 1 (≈ 1.85 µM) | 1 (≈ 1.85 µM) | – | – |
| CN(C)c1cc2nc(-c3ccc4c(c3)OCO4)oc2c2c1C[C@H]1C[C@H]3[C@H](N(C)C)C(O)=C(C(N)=O)C(=O)[C@@]3(O)C(O)=C1C2=O [Example 14, (6aR,7aS,8S,11aS)-2-(1,3-benzodioxol-5-yl)-5,8-bis(dimethylamino)-9,11a,12-trihydroxy-11,13-dioxo-6,6a,7,7a,8,11,11a,13-octahydrotetraceno[2,1-d][1,3]oxazole-10-carboxamide] | 8 (≈ 13.3 µM) | 4 (≈ 6.64 µM) | 16 (≈ 26.6 µM) | – | > 64 | 4 (≈ 6.64 µM) | 4 (≈ 6.64 µM) | 4 (≈ 6.64 µM) | > 64 | > 64 | 16 (≈ 26.6 µM) | 4 (≈ 6.64 µM) | 8 (≈ 13.3 µM) | 16 (≈ 26.6 µM) | 4 (≈ 6.64 µM) | > 64 | 4 (≈ 6.64 µM) | 16 (≈ 26.6 µM) | > 64 | > 64 |

From patent US20080064667A1, “OXAZOLE DERIVATIVES OF TETRACYCLINES” (Wyeth, priority 2003, published 2008)
